The target in assay [1] is T1, Melatonin receptor type 1B (Homo sapiens, UniProt P49286).
T1 sequence (P49286 whole entry): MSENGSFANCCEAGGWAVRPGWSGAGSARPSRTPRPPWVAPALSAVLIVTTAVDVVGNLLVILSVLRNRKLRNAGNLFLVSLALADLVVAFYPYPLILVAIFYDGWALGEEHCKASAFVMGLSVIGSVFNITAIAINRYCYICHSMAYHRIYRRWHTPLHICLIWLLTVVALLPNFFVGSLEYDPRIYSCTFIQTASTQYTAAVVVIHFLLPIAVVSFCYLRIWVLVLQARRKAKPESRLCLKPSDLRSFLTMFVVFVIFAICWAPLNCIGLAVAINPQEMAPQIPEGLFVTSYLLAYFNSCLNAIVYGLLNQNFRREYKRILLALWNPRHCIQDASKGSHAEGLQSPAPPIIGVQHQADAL
The assay can be described thus: Inhibition of 2-[125I]iodomelatonin binding to human Melatonin receptor type 1B expressed in HEK293 cells. Type of assay: cell-based.

Assay [2] concerns the target Melatonin receptor type 1A (Homo sapiens, UniProt P48039). Kind of assay: Inhibition of 2-[125I]iodomelatonin binding to human Melatonin receptor type 1A expressed in HEK293 cells. The format is cell-based.
The species entered for assay [3] is Homo sapiens. Kind of assay: Selectivity ratio of binding affinity at MT1 receptor relative to MT3 receptor.
The species named for assay [4] is Homo sapiens. The assay can be described thus: Selectivity ratio of binding affinity at MT2 receptor relative to MT3 receptor.

As usually defined, the pKi is −log10 of the Ki, conventionally taken in molar units. Read a high pKi as a small Ki.

pKi: −log10 of the molar value.

Melatonin receptor type 1A, sequence (P48039 whole entry): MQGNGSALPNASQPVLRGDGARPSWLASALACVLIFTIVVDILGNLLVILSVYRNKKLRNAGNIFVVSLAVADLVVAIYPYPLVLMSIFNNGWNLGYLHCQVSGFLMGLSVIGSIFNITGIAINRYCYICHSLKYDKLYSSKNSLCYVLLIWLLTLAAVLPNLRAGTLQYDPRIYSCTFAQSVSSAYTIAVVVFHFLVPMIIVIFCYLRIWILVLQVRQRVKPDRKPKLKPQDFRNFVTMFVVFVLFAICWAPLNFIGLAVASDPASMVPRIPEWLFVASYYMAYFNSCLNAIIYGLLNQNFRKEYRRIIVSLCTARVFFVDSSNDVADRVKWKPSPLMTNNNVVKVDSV

For the compound `COc1ccc2[nH]c(I)c(CCNC(C)=O)c2c1[N+](=O)[O-]`, the results for the negative-log Ki (pKi) in assay [1] and in assay [2] were 7.63 and 7.72, respectively.

For `COc1ccc2c(c(CCNC(C)=O)cn2C)c1[N+](=O)[O-]`, the values for the pKi in assay [1] and in assay [2] were 6.71 and 5.07, respectively. The Selectivity came to 27600 in the assay filed under Homo sapiens [3] and 625 in the assay listed under Homo sapiens [4].

Consider `COc1ccc2[nH]cc(CCNC(C)=O)c2c1[N+](=O)[O-]`, for which the pKi is 6.09 in assay [1] and 5.97 in assay [2]. The Selectivity in the assay filed under Homo sapiens [3] was determined as 964; in the assay filed under Homo sapiens [4] it was 745.

For the compound `COc1cc2c(CCNC(C)=O)c(I)n(C)c2cc1[N+](=O)[O-]`, the pKi in assay [1] was 9.11; in assay [2], 8.96.

With `COc1ccc2c(c(CCNC(C)=O)c(I)n2C)c1[N+](=O)[O-]`, the pKi in assay [1] is 7.41; in assay [2], 5.73.

Compound `COc1cc2c(CCNC(C)=O)c(I)[nH]c2cc1[N+](=O)[O-]` gave a pKi in assay [2] of 9.52.

As for `COc1ccc2c(c1)c(CCNC(C)=O)c(I)n2C`, the negative logarithm of the Ki (pKi) in assay [1] was 10.33; in assay [2] it was 10.10.

Take `COc1cc([N+](=O)[O-])c2[nH]cc(CCNC(C)=O)c2c1`: the pKi was 7.54 in assay [1] and 7.31 in assay [2].

As for `COc1ccc2c(c1)c(CCNC(C)=O)cn2C`, the figures for the pKi in assay [1] and in assay [2] were 8.51 and 8.59, respectively. In addition, the Selectivity in the assay filed under Homo sapiens [3] turned out to be 0.929; in the assay filed under Homo sapiens [4], 1.1.

With `COc1cc2c(CCNC(C)=O)c[nH]c2cc1[N+](=O)[O-]`, the negative logarithm of the Ki (pKi) in assay [1] was 8.28; in assay [2], 7.84.

(Values after ChEMBL document CHEMBL1135933, “Synthesis of nitroindole derivatives with high affinity and selectivity for melatoninergic binding sites MT(3)” (J Med Chem, 2002).)
